# Key:
# [1] = Particle size and polydispersity index of nanoparticle compositions (Zetasizer Nano ZS); assay type: physicochemical; details: Formulated with lipid:Chol:DOPE:PEG 1 40:38.5:20:1.5
# Procedure: A Zetasizer Nano ZS (Malvem Instruments Ltd, Malvem, Worcestershire, UK) can be used to determine the particle size, the polydispersity index (PDI) and the zeta potential of the nanoparticle compositions in 1×PBS in determining particle size and 15 mM PBS in determining zeta potential.
# [2] = Encapsulation efficiency of RNA (QUANT-IT RIBOGREEN RNA assay); assay type: physicochemical; details: Formulated with lipid:Chol:DOPE:PEG 1 40:38.5:20:1.5
# Method in brief: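 Samples diluted to about 5 μg/mL RNA in TE buffer pH 7.5, treated with buffer or 2% Triton X-100 for 15 min at 37° C, then stained with RiboGreen (1:100). Fluorescence at about 480/520 nm, blank-subtracted; free RNA fraction is intact over Triton-disrupted signal.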
# hEPO expression = test: hEPO (miR126 + miR142) mRNA expression, Tables 8b-8e; assay type: in vivo
# [3] = Lipid clearance: % dose remaining, Tables 7c and 8b-8e (species not given); assay type: in vivo
# Text: In contrast, hEPO expression in rats induced by administration of a nanoparticle composition including a compound according to one of formulae (I), (Ia1)-(Ia6), (Ib), (II), (IIa), (III), and (IIIa) was substantially […] than that measured for MC3. […] Tables 7c and 7d show additional protein expressions and clearance data from compositions with various compounds disclosed herein as compared to with MC3. Tables 7e, 7f and 7g show hEPO expression data in CD-1 mice at a dose of 0.5 mpk.
SMILES,PDI ([1]; Table 1e),Size (nm) ([1]; Table 1e),EE (%) ([2]; Table 1e),"% Dose Remaining (liver, 24 h) ([3]; Table 8c)",PDI ([1]; Table 1f),Size (nm) ([1]; Table 1f),EE (%) ([2]; Table 1f),"% Dose Remaining (liver, 24 h) ([3]; Table 8d)",AUC (hEPO expression; Table 8c),AUC (hEPO expression; Table 8d),also measured
"CCCCC/C=C\CCN(CC/C=C\CCCCC)CCN(CC/C=C\CCCCC)CC(=O)N(C)CCN(C)C(=O)CN(CCCCCCCCC)CCCCCCCCC [Compound 154, 2-((2-(di((Z)-non-3-en-1-yl)amino)ethyl)((Z)-non-3-en-1-yl)amino)-N-(2-(2-(dinonylamino)-N-methylacetamido)ethyl)-N-methylacetamide]",,,,,,,,,,,"PDI ([1]; Table 1d): 0.18; Size (nm) ([1]; Table 1d): 103.3 nm; EE (%) ([2]; Table 1d): 97.8%; AUC (hEPO expression; Table 8b): 1.37e+08 pg·h/mL; % Dose Remaining (liver, 24 h) ([3]; Table 8b): 78.44%"
"CCCCCCCCCN(CCCCCCCCC)CCN(CCCCCCCCC)CC(=O)N(C)CCCN(C)C(=O)CN(CCCCCCCCC)CCCCCCCCC [Compound 155, 2-(dinonylamino)-N-(3-(2-((2-(dinonylamino)ethyl)(nonyl)amino)-N-methylacetamido)propyl)-N-methylacetamide]",,,,,,,,,,,"PDI ([1]; Table 1d): 0.22; Size (nm) ([1]; Table 1d): 84.4 nm; EE (%) ([2]; Table 1d): 98.4%; AUC (hEPO expression; Table 8b): 8.89e+07 pg·h/mL; % Dose Remaining (liver, 24 h) ([3]; Table 8b): 78.61%"
"CCCCCCCCCN(CCCCCCCCC)CCN(CCCCCCCCC)CC(=O)N(CC)CCN(CC)C(=O)CN(CCCCCCCCC)CCCCCCCCC [Compound 157, 2-(dinonylamino)-N-(2-(2-((2-(dinonylamino)ethyl)(nonyl)amino)-N-ethylacetamido)ethyl)-N-ethylacetamide]",,,,,,,,,,,"PDI ([1]; Table 1d): 0.11; Size (nm) ([1]; Table 1d): 89.8 nm; EE (%) ([2]; Table 1d): 98.3%; AUC (hEPO expression; Table 8b): 2.08e+08 pg·h/mL; % Dose Remaining (liver, 24 h) ([3]; Table 8b): 42.48%"
"CCCCCCCCCCCCCCN(CCCOC(=O)CCCCCCCCC)CC(=O)N(C)CCN(C)C(=O)CN(CCCCCCCCC)CCN(CCCCCCCCC)CCCCCCCCC [Compound 158, 7,10-dimethyl-13,16-dinonyl-6,11-dioxo-4-tetradecyl-4,7,10,13,16-pentaazapentacosyl Decanoate]",,,,,,,,,,,"PDI ([1]; Table 1d): 0.20; Size (nm) ([1]; Table 1d): 124.2 nm; EE (%) ([2]; Table 1d): 97.8%; AUC (hEPO expression; Table 8b): 1.03e+07 pg·h/mL; % Dose Remaining (liver, 24 h) ([3]; Table 8b): 0.30%"
"CCCCCCCCCN(CCCCCCCCC)CCCCCCCCN(CCCCCCCCC)CCN(CCCCCCCCC)CCCCCCCCC [Compound 160, N^1-(2-(dinonylamino)ethyl)-N^1,N^8,N^8-trinonyloctane-1,8-diamine]",,,,,,,,,,,"PDI ([1]; Table 1d): 0.25; Size (nm) ([1]; Table 1d): 115.5 nm; EE (%) ([2]; Table 1d): 97.3%; AUC (hEPO expression; Table 8b): 219000 pg·h/mL; % Dose Remaining (liver, 24 h) ([3]; Table 8b): 60.54%"
"CCCCCCCCCN(CCCCCCCCC)CCCOCCCN(CCCCCCCCC)CCN(CCCCCCCCC)CCCCCCCCC [Compound 161, N^1-(3-(3-(dinonylamino)propoxy)propyl)-N^1,N^2,N^2-trinonylethane-1,2-diamine]",0.17,61.8 nm,97.8%,113.64%,,,,,128000 pg·h/mL,,
"CCCCCCCCCCNC(=O)CN(CCCCCCCCC)CCN(CCCCCCCCC)CCCCCCCCC [Compound 162, N-decyl-2-((2-(dinonylamino)ethyl)(nonyl)amino)acetamide]",0.23,73.1 nm,98.4%,63.12%,,,,,2.3e+07 pg·h/mL,,
"CCCCCCCCCCCCCCNC(=O)CN(CCCCCCCCC)CCN(CCCCCCCCC)CCCCCCCCC [Compound 163, 2-((2-(dinonylamino)ethyl)(nonyl)amino)-N-tetradecylacetamide]",0.23,88.6 nm,98.1%,65.12%,,,,,1.01e+07 pg·h/mL,,
"CCCCCCCCCCN(CCCCCCCCCC)CCCCC(=O)N1CCN(C(=O)CCCCN(CCCCCCCCCC)CCCCCCCCCC)CC1 [Compound 164, 1,1′-(Piperazine-1,4-diyl)bis(5-(didecylamino)pentan-1-one)]",0.15,74.4 nm,97.7%,40.18%,,,,,4.09e+06 pg·h/mL,,
"CCCCCCCCCN(CCCCCCCCC)CCN(CCCCCCCCC)CC(=O)NCCCCOC(=O)CCCC [Compound 165, 4-(2-((2-(dinonylamino)ethyl)(nonyl)amino)acetamido)butyl pentanoate]",0.22,107.8 nm,97.0%,0.13%,,,,,9.38e+07 pg·h/mL,,

# Now from value to molecule, other results behind:
PDI ([1]; Table 1e),Size (nm) ([1]; Table 1e),EE (%) ([2]; Table 1e),"% Dose Remaining (liver, 24 h) ([3]; Table 8c)",PDI ([1]; Table 1f),Size (nm) ([1]; Table 1f),EE (%) ([2]; Table 1f),"% Dose Remaining (liver, 24 h) ([3]; Table 8d)",SMILES,AUC (hEPO expression; Table 8c),AUC (hEPO expression; Table 8d),also measured
0.24,59.4 nm,97.1%,75.26%,,,,,"CCCCCCCCCOC(=O)CN(CCCCCCCCC)CCN(CCCCCCCCC)CCCCCCCCC [Compound 166, Nonyl N-(2-(dinonylamino)ethyl)-N-nonylglycinate]",0 pg·h/mL,,
0.22,64.5 nm,97.6%,89.60%,,,,,"CCCCCCCCCCCCCCOC(=O)CN(CCCCCCCCC)CCN(CCCCCCCCC)CCCCCCCCC [Compound 167, Tetradecyl N-(2-(dinonylamino)ethyl)-N-nonylglycinate]",0 pg·h/mL,,
0.17,60.0 nm,97.3%,2.74%,,,,,"CCCCCCCCCN(CCCCCCCCC)CCN(CCCCCCCCC)CCOC(=O)CCCCCCCC [Compound 168, 2-((2-(Dinonylamino)ethyl)(nonyl)amino)ethyl Nonanoate]",0 pg·h/mL,,
0.24,72.5 nm,97.6%,0.30%,,,,,"CCCCCCCCCCCCCC(=O)OCCN(CCCCCCCCC)CCN(CCCCCCCCC)CCCCCCCCC [Compound 169, 2-((2-(Dinonylamino)ethyl)(nonyl)amino)ethyl Tetradecanoate]",0 pg·h/mL,,
,,,,0.25,129.9 nm,97.7%,2.51%,"CCCCCCCCCOC(=O)CCCCCCCN(CCCCCCCC(=O)OC(CCCCCCCC)CCCCCCCC)CCCCC(=O)N(CC)CCN(CC)C(=O)CCCCN(CCCCCCCC(=O)OCCCCCCCCC)CCCCCCCC(=O)OC(CCCCCCCC)CCCCCCCC [Compound 181, Di(heptadecan-9-yl) 15,18-diethyl-9,24-bis(8-(nonyloxy)-8-oxooctyl)-14,19-dioxo-9,15,18,24-tetraazadotriacontanedioate]",,1.69e+08 pg·h/mL,
,,,,0.28,97.7 nm,98.8%,1.64%,"CCCCCCCCCOC(=O)CCCCCCCN(CCCCCCCC(=O)OC(CCCCCCCC)CCCCCCCC)CCCCC(=O)N(C)CCCN(C)C(=O)CCCCN(CCCCCCCC(=O)OCCCCCCCCC)CCCCCCCC(=O)OC(CCCCCCCC)CCCCCCCC [Compound 182, Di(heptadecan-9-yl) 15,19-dimethyl-9,25-bis(8-(nonyloxy)-8-oxooctyl)-14,20-dioxo-9,15,19,25-tetraazatritriacontanedioate]",,6.06e+07 pg·h/mL,
,,,,Multimodal,128.9 nm,99.1%,1.87%,"CCCCCCCCCOC(=O)CCCCCCCN(CCCCCCCC(=O)OC(CCCCCCCC)CCCCCCCC)CCCCC(=O)N(C)CCN(C)C(=O)CCCCN(CCCCCCCC(=O)OCCCCCCCCC)CCCCCCCC(=O)OC(CCCCCCCC)CCCCCCCC [Compound 183, Di(heptadecan-9-yl) 15,18-dimethyl-9,24-bis(8-(nonyloxy)-8-oxooctyl)-14,19-dioxo-9,15,18,24-tetraazadotriacontanedioate]",,6.53e+07 pg·h/mL,
,,,,Multimodal,107.6 nm,99.1%,2.23%,"CCCCCCCCCOC(=O)CCCCCCCN(CCCCCCCC(=O)OC(CCCCCCCC)CCCCCCCC)CCCCC(=O)N1CCN(C(=O)CCCCN(CCCCCCCC(=O)OCCCCCCCCC)CCCCCCCC(=O)OC(CCCCCCCC)CCCCCCCC)CC1 [Compound 184, Di(heptadecan-9-yl) 8,8′-((piperazine-1,4-diylbis(5-oxopentane-5,1-diyl))bis((8-(nonyloxy)-8-oxooctyl)azanediyl))dioctanoate]",,4.21e+08 pg·h/mL,
,,,,0.27,98.4 nm,98.6%,18.21%,"CCCCCCCCCOC(=O)CCCCCCCN(CCCCCCCC(=O)OC(CCCCCCCC)CCCCCCCC)CCCCC(=O)OCCOC(=O)CCCCN(CCCCCCCC(=O)OCCCCCCCCC)CCCCCCCC(=O)OC(CCCCCCCC)CCCCCCCC [Compound 185, Di(heptadecan-9-yl) 8,8′-(11,24,29,42-tetraoxo-10,25,28,43-tetraoxa-19,34-diazadopentacontane-19,34-diyl)dioctanoate]",,2.23e+07 pg·h/mL,
,,,,0.21,111.5 nm,98.2%,49.08%,"CCCCCCCCCOC(=O)CCCCCCCN(CCCCCCCC(=O)OC(CCCCCCCC)CCCCCCCC)CCCCC(=O)OC(C)C(C)OC(=O)CCCCN(CCCCCCCC(=O)OCCCCCCCCC)CCCCCCCC(=O)OC(CCCCCCCC)CCCCCCCC (stereo not shown) [Compound 186, Di(heptadecan-9-yl) 8,8′-(26,27-dimethyl-11,24,29,42-tetraoxo-10,25,28,43-tetraoxa-19,34-diazadopentacontane-19,34-diyl)dioctanoate]",,2.19e+07 pg·h/mL,
